Results: patent publication US20220364065A1, “COMPOSITION FOR REMOVING PLURIPOTENT STEM CELLS AND METHOD OF REMOVING PLURIPOTENT STEM CELLS” (NATIONAL UNIVERSITY CORPORATION HOKKAIDO UNIVERSITY, priority 2018, published 2022)
“Also recorded” adds a separate entry of the source.

Key:
mouse astrocytes = assay: MTT assay, viability of mouse astrocytes; assay type: cell-based; details: 10 μM BRQ, 3 days
Protocol: (§1) One thousand cells were seeded into each well of a 96-well plate and cultured for 3 days in medium (200 μL/well) supplemented with only DMSO at a final concentration of 0.1% or in medium (200 μL/well) supplemented with each dihydroorotate dehydrogenase (DHODH) inhibitor. The medium used was the appropriate culture solution for each cell as described above.
(§2) The concentration of each DHODH inhibitor added to the medium was a 2-fold dilution series starting from 200 μM.
(§3) As a background, a well containing medium only was prepared, and as a control, a well was also prepared in which medium containing Triton X-100 (final concentration 0.2%) was added to the cells.
(§4) Then, 5 μL of MTT (5 mg/ml, manufactured by Wako) was added to each well, and the cells were incubated at 37° C. for 2 to 3 hours. Then, the medium was replaced with 100 μL of DMSO to lyse the cells, and the absorbance of these cell lysates at a wavelength of 570 nm was measured with a microplate reader (manufactured by Bio-Rad, Benchmark model). In addition, based on the obtained absorbance, the cell viability was calculated by the following formula.
(§5) Cell viability (%)=(absorbance in wells with DHODH inhibitor-absorbance in background)/(absorbance in control-absorbance in background)×100.

mouse ES cells = assay: Teratoma formation from pretreated ES cells in NOD/SCID mice; assay type: in vivo; details: ES cells pretreated 2 days with 10 μM BRQ, subcutaneous in NOD/SCID mice, 4 weeks
Protocol: The viable cells (1×10^6) were suspended in 50 μl of Matrigel (manufactured by BD Biosciences) and injected subcutaneously into the buttocks of 5-8-week-old NOD/SCID mice anesthetized with 10% pentobarbital. Four weeks after the injection, the mice were sacrificed to death, and the tumors were removed and photographed for their size measurement according to the method described in Tsukamoto Y, et al., Stem Cells. 2016; 34(8): 2016-2025. Based on the measurement values obtained, the volume of the tumors was calculated by the following formula.
Volume of tumor (cm^3)=major diameterxminor diameterxminor diameter×½.
Then, 4 weeks after transplantation, the tumors were removed and observed.

[1] = system: teratomas formed from mouse ES cells; assay: Anti-teratoma activity in NOD/SCID mice, ES cell-derived tumors; assay type: in vivo
Protocol: For tumors, 10-μm-thick sections were prepared and immunostained using the methods described by Kondo T. and Raff M., EMBO J. 2000; 19(9): 1998-2007, and Takanaga H, et al., Stem Cells. 2009; 27(1): 165-174. The following antibodies were used for this immunostaining.
TOCRIS) PBS solution was administered daily intraperitoneally to mice bearing subcutaneous tumors. Five days after intraperitoneal administration, the mice were sacrificed to death, and the tumors were removed and photographed for pathological analysis according to the method described in Tsukamoto Y, et al., Stem Cells. 2016; 34(8): 2016-2025.
Next, sections of these tumors were prepared, immunolabeled for the proliferation marker Ki67, pluripotent stem cell markers (Oct4 and Nanog), and differentiation markers (ATF, βIII tubulin, and SMA), and observed.

[2] = system: mouse neural stem cells (mNSC); assay: MTT assay, viability of mouse neural stem cells; assay type: cell-based; details: 10 μM BRQ, 3 days
Protocol: as §1, §2, §3, §4, §5

mouse iPS cells [3] = assay: Quantitative RT-PCR of Sox2, Oct4, Nanog, iPS cells; assay type: cell-based; details: 10 μM BRQ, 2 days
Protocol: First, total RNA was prepared from cells using the RNeasy kit (manufactured by Qiagen), and cDNA was synthesized using the Transcriptor First Strand cDNA Synthesis Kit (manufactured by Roche Applied Science).
Then, the cDNA was used as a template, and Thunderbird Cyber qPCR Mix (manufactured by TOYOBO) and Step One Plus (manufactured by Thermo Fisher Scientific) were used to perform real-time PCR. The reaction conditions were set at 95° C. for 15 seconds and 60° C. for 30 seconds for 40 cycles, and the oligonucleotide primers shown below were used to amplify each target gene.
Note that the expression level of each target gene detected in this way was normalized by the relative quantification method (delta delta Ct method) based on the expression level of 18S ribosomal RNA.

mouse iPS cells [4] = assay: Immunostaining of pluripotent stem cell markers (Sox2, Nanog, Oct4), iPS cells; assay type: cell-based
Protocol: The cells were fixed and immunostained as described in Kondo et al., Genes Dev. […] For the culture of ES cells and iPS cells, gelatin-coated ones were used.
For immunostaining, the cells were first washed once with PBS, then fixed by adding 4% paraformaldehyde and incubating for 10 minutes at room temperature. The cells were replaced with PBS containing 0.3% Triton X100 and incubated for 5 minutes at room temperature, then replaced with PBS containing 0.3% Triton X100 and 10% FCS (blocking solution) and incubated for 30 minutes at room temperature. The solution was replaced with primary antibody solution diluted in blocking solution and incubated for 2 hours at room temperature. After washing three times with PBS, secondary antibody and DAPI solution diluted with blocking solution were added and incubated at room temperature for 2 hours. […] Note that the cell nuclei were visualized by contrast staining with DAPI solution (1 μg/mL, manufactured by Dojindo, product code: D523). In addition, fluorescence images were acquired with an Axiolmager M1 microscope (manufactured by Carl Zeiss).
LMB is a specific inhibitor of CRM1, also known as Exportin 1.

[5] = iPS cells, 2 days, BRQ 10 μM (ZVAD 100 nM where added)
[6] = mouse iPS cells, 10 μM BRQ, 24 hours

Cc1c(-c2ccc(-c3ccccc3F)cc2)nc2ccc(F)cc2c1C(=O)O [BRQ, 6-fluoro-2-(2′-fluoro-1,1′-biphenyl-4-yl)-3-methyl-4-quinoline-sodium carboxylate]
cytotoxic activity / sensitivity (viability, MTT assay) (mouse astrocytes): hyposensitive; also recorded: no significant cytotoxic activity | tumor formation from pretreated cells (mouse ES cells): did not proliferate | number of Oct4-positive cells and Nanog-positive cells in tumors ([1]; ES cell-derived tumors): significantly decreased | tumor proliferation ([1]; ES cell-derived tumors, BRQ intraperitoneally): suppressed | cells expressing differentiation markers (ATF, βIII tubulin, SMA) in tumors ([1]; ES cell-derived tumors, BRQ- vs DMSO-treated): similarly contained in both tumors | Ki67-positive proliferating cells in tumors ([1]; ES cell-derived tumors, compared to DMSO-treated tumors): significantly reduced | sizes of teratomas ([1]; ES cell-derived, BRQ intraperitoneally (DMSO control 0.55 cm^3)): 0.12 cm^3 | cytotoxic activity / sensitivity (viability, MTT assay) [2]: hyposensitive; also recorded: no significant cytotoxic activity | expression levels of marker genes (Sox2, Oct4, Nanog) (mouse iPS cells [3]): generally decreased | Nanog-positive cells (mouse iPS cells [4]; [5]): 0% | Oct4-positive cells (mouse iPS cells [4]; [5]): 0% | cells in which expression of Sox2 was not observed (mouse iPS cells [4]; [6]): about 30% | inhibition of cell proliferation or cell death (mouse iPS cells [4]; [6]): inhibition of cell proliferation or cell death was already observed | subcellular localization of Nanog (mouse iPS cells [4]; mouse iPS cells, 10 μM BRQ, 2 days): distributed in the cytoplasm
